Experimental findings from PubChem BioAssay AID1508591 are described below.

For the data set the following is noted: rat; liver microsomes; pH 7.4; 15.0 min; 1.0 µM. For orientation: Liver microsomes are vesicles of endoplasmic reticulum, rich in cytochrome P450 enzymes.

Where only a bound is given, the exact number is not on record here.

For the compound `COc1ccc(NC(=O)c2c(C)cccc2C)cc1[S+](=O)([O-])N(C)C`, the half-life (usually the time needed for the level to fall by half in the phase considered) is greater than 30 min.
For `COc1cccc(C(=O)Nc2ccc3c(N4CCOCC4)ncnc3c2)c1` the value was 27.3 min; for `Cc1ccc(S(=O)(=O)Nc2cnccc2C(=O)Nc2nc(-c3ccc(Oc4ccccc4)cc3)cs2)cc1`, 6.9 min; for `CCCNc1oc(-c2cccc3ccccc23)nc1C#N`, 13 min.
In turn, `CSc1nnc2c3ccccc3n(CCc3ccccc3)c2n1` displayed a half-life of 1.69 min.
For `COc1ccc(CN2C(=O)[C@@H]3C[C@@H](CN3Cc3cccs3)Oc3ccccc32)cc1` the value was 1.2 min.
For `Cc1ccc([S+](=O)([O-])n2cc(Cc3ccc(-c4ccccc4)cc3)c3ccccc32)cc1` the value was 22 min; for `O=C(c1ccc2c(c1)ncn2-c1ccc(C(F)(F)F)cc1)N1CCCCC1`, 7.6 min.
`CNC(=O)c1cc(Oc2ccc(NC(=O)Nc3cc(C(C)(C)C)nn3-c3ccc4ncccc4c3)c(F)c2)ccn1`: the half-life amounted to 6.64 min.
As for `N#Cc1cc(NC(=O)Nc2nnc(-c3ccncc3)s2)ccc1-c1cn[nH]c1`, the half-life was greater than 30 min.
For `Cc1cccc(-c2noc([C@@H]3Cc4nc[nH]c4CN3C(=O)CC(C)(C)CC(=O)O)n2)c1`, the half-life is greater than 30 min.
For the compound `Cc1cccc(-n2nc(C)c3c2NC(=O)CSC3c2ccccc2Cl)c1` (stereo not given), the half-life was determined as 1.63 min.
For `CC(=O)c1c(C)c(C(=O)Nc2cccc([S+](=O)([O-])N3CCCCCC3)c2)n(C)c1C` the value was 1.4 min.
For `C=C[C@]1(C)C[C@@H](OC(=O)CSC(C)(C)CNC(=O)[C@H](N)C(C)C)[C@]2(C)[C@H](C)CC[C@]3(CCC(=O)[C@H]32)[C@@H](C)[C@@H]1O` the value was 2.06 min.
For `CC(C)(C)CN1CCNc2cc(Nc3ccccc3)ncc2C1` the value was 1.64 min; for `CN1CCN(CCCN2c3ccccc3Sc3ccc(S(=O)(=O)N(C)C)cc32)CC1`, 1.95 min.
Regarding `NC[C@H](O)c1ccc(O)c(O)c1`, the half-life is 13.4 min.
For `COc1cccc(CNc2ccc(S(=O)(=O)Nc3cccc(-c4ccccc4)c3)cc2)c1O` the value was 17 min; for `C[S+](=O)([O-])N1CCC(Cn2ccc3c(N4CCOCC4)nc(-c4cccc5[nH]ccc45)cc32)CC1`, 15.9 min; for `C[C@]12CC[C@@H]3[C@H](CCC4=CC(=O)CC[C@]43C)[C@]1(O)CC[C@@]2(O)C(=O)CO`, 20.9 min.
With `COCCNCc1ccc(-c2cc3nccc(Oc4ccc(NC(=S)NC(=O)Cc5ccc(F)cc5)cc4F)c3s2)nc1`, the half-life was 10.3 min.
Compound `COc1cc(F)ccc1-c1nc(-c2c(C)noc2C)cc2c1cc(C)n2C` yielded a half-life of 21.6 min.
For `CC(C)COc1ccc(-c2csc(N3CCC(C(N)=O)CC3)n2)cc1` the value was 7.23 min; for `CNC(=O)c1ccc(-c2cnc3cnc(C(=O)N(C)c4ccc(Cl)cc4)cn23)cc1`, greater than 30 min.
Compound `Cc1ccc(NC(=O)N2CCN(c3nc(N)nc4sc(-c5cccnc5)nc34)CC2)cc1` had a half-life of 17.1 min.
Consider `CC(=O)NCc1ccc(-c2csc(Nc3cc(C)cc(C)c3)n2)o1`, for which the half-life was greater than 30 min.
For `CS(=O)(=O)Nc1cccc(-c2nccc(-n3ccnc3)n2)c1` the value was greater than 30 min; for `COc1cc(NC(=O)c2cc(-c3ccccc3O)no2)cc(OC)c1OC`, 12.5 min.
For `Clc1ccc2ncc(-c3cccc(NC4CNC4)n3)n2c1` the value was 13.6 min; for `CC1(C)CC(=O)C2=C(C1)NC(Nc1nc3ccccc3o1)=NC2c1ccccc1Cl` (stereo not given), 11 min.
On to `Cc1ccc(C(=O)Nc2ccc(CN3CCN(C)CC3)c(C(F)(F)F)c2)cc1C#Cc1cnc2cccnn12`, for which the half-life is greater than 30 min.
For `CC1=C(C(=O)Nc2nccs2)C(c2ccccc2Br)N=C(Nc2nc3ccccc3o2)N1` (stereo not given) the value was 27 min.
In turn, `C[C@@H](CCC[C@@H]1SC[C@H]2NC(=O)N[C@H]12)C(=O)O` had a half-life greater than 30 min.
For `FC(F)(F)c1ccccc1-c1nc(NCc2cccc(Cl)c2)c2ccccc2n1` the value was 2.97 min; for `COc1ccccc1N1CCN(CCN(C(=O)c2ccc(F)cc2)c2ccccn2)CC1`, 2.02 min; for `COc1ccc(O)c2c(=O)c3c(OC)cc4c(c3oc12)C1C=COC1O4` (stereo not given), 2.79 min.
For `NC(CO)(CO)CCc1ccc(Sc2cccc(OCc3ccccc3)c2)cc1Cl` the value was greater than 30 min; for `Cc1ccc(-c2csc(Nc3ccc(S(=O)(=O)Nc4nccs4)cc3)n2)cc1C`, greater than 30 min.
As for `CN1CCc2cc3c(cc2C1)OCO3`, the half-life worked out at 1 min.
For `CN1CCN(c2ccc(Nc3c4ccccc4nc4ccccc34)cc2)CC1` the value was 1.72 min.
For `C[S+](=O)([O-])c1ccc(-c2nc(C(=O)N3CCOCC3)n3ccncc23)cc1` the value was greater than 30 min; for `O=S(=O)(c1ccccc1)c1nc(-c2ccc(F)cc2)oc1N1CCCCCC1`, 1.95 min.
For `Cc1ccc(-c2cc(C(=O)Nc3ccc(S(=O)(=O)Nc4ccc(C#N)cc4)cc3)c3ccccc3n2)cc1C` the value was 15 min; for `Cc1ccc(S(=O)(=O)Nc2cnccc2C(=O)Nc2nc3ccccc3s2)cc1`, 4.1 min.
`CN(C(=O)CSc1nc2c(c(=O)[nH]1)CCCC2)c1ccccc1` gave a half-life of 13 min.
`COc1ccc(-n2nc(C3CCN(C(=O)Cc4ccc(F)cc4)CC3)[nH]c2=O)cc1` had a half-life of 7.87 min.
For `C[C@]1(CO)CN(c2cc(C(=O)Nc3ccc4c(c3)-c3c(c(C(N)=O)nn3-c3ccc(F)cc3)CC4)c(Cl)cn2)C[C@@]1(C)CO` the value was 23.2 min; for `COc1ccc(C2c3c(oc4ccc(Cl)cc4c3=O)C(=O)N2CCCN(C)C)cc1OC` (stereo not given), greater than 30 min; for `Cc1cc(C)nc(NC(=S)N2CCN(c3ccc(F)cc3F)CC2)c1`, greater than 30 min.
`COc1cc(/C=C2\C(=O)Nc3ccccc32)ccc1O` registered a half-life of 12 min.
`CSc1ncc(Cl)c(C(=O)Nc2c(C)cccc2C)n1`: the half-life came out at 5.48 min.
`COc1cc(-c2c(C#N)c(N)nc3c2c(C)nn3-c2ccc(F)cc2)ccc1O` showed a half-life greater than 30 min.
For `O=C(c1cnccn1)N1CCC2(CCCN(C(c3ccccc3)c3ccccc3)C2)CC1` the value was 1.8 min; for `COc1cccc(Nc2ncc(-c3cccc(N(C)C)c3)c3c2OCC3)c1`, 8.98 min.
For `O=C1CCCC2=C1C1(CCSCC1)N=C(Nc1nc3ccccc3o1)N2` the value was 2.3 min; for `O=S(=O)(c1ccccc1)N1CCCCC1CCc1ccccc1` (stereo not given), 2.32 min; for `CCOC(=O)CCNc1cc(N2CCc3ccccc3CC2)nc(-c2ccccn2)n1`, 1.5 min.
With `O=c1c(O)c(-c2ccc(O)cc2)oc2cc(O)cc(O)c12`, the half-life was 6.13 min.
As for `Cc1ccnc(NC(=S)N2CCC(c3cccc(C(F)(F)F)c3)CC2)c1`, the half-life stood at 24 min.
For `O=C1Nc2ccc(I)cc2C1=Cc1cc(Br)c(O)c(Br)c1` the value was greater than 30 min; for `O=C(Nc1nc(-c2ccccc2)cs1)c1ccncc1NS(=O)(=O)c1ccc(F)cc1`, 20 min.
For `COc1ccc(C2CC(=O)Nc3nc(N)sc32)cc1OC` (stereo not given) the value was greater than 30 min; for `O=C(Cc1ccc(Cl)cc1)Nc1cnccc1C(=O)O`, greater than 30 min.
In turn, `N#Cc1nc(-c2cccc3ccccc23)oc1NC1CNC1` showed a half-life greater than 30 min.
For `COc1ccc(C(=O)NC2CCN(c3cnn(CC4CC4)c(=O)c3)CC2)c(OC)n1` the value was 13.9 min.
